pIC50: −log10 of the molar value. Counter-ions that a name gives are not always drawn. Some results are limits rather than exact numbers.

Data set [1] can be described thus: Determination of the microsomal half-life, human liver microsomes. The note with it: for microsomal CLint at 0.5 μM: human, liver microsomes, pH 7.4. For orientation: Liver microsomes are a subcellular fraction often used to study metabolism.
Experimental: (§1) The test substances were incubated in a concentration of 0.5 μM as follows:
(§2) 0.5 μM test substance are preincubated together with liver microsomes from different species (from rat, human or other species) (0.25 mg of microsomal protein/10 in 0.05 M potassium phosphate buffer of pH 7.4 in microtiter plates at 37° C. for 5 min. The reaction is started by adding NADPH (1 mg/mL). After 0, 5, 10, 15, 20 and 30 min., 50 μl aliquots are removed, and the reaction is immediately stopped and cooled with the same volume of acetonitrile. The samples are frozen until analyzed. The remaining concentration of undegraded test substance is determined by MSMS. The half-life (T½) is determined from the gradient of the signal of test substance/unit time plot, it being possible to calculate the half-life of the test substance, assuming first order kinetics, from the decrease in the concentration of the compound with time. The microsomal clearance (mCl) is calculated from mCl=ln 2/T½/(content of microsomal protein in mg/ml)×1000 [ml/min/mg]
A short description of data set [2]: Determination of the microsomal half-life, rat liver microsomes. The note with it: for microsomal CLint at 0.5 μM: rat, liver microsomes, pH 7.4.
Experimental: as §1, §2
A further data set deals with T1, PDE10A (human) (Homo sapiens, UniProt Q9Y233).
T1 construct: purchased BPS Bioscience
In words: Measurement of PDE activity (HTRF cAMP kit), human PDE10A. In kind it is biochemical. The note with it: PDE enzymatic reaction, substrate 20 nM for PDE10, 60 minutes at 29 C. The procedure, abridged: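 Recombinant human PDE10A (10–250 pM range across PDEs) with 20 nM cAMP substrate in 20 mM Tris-HCl pH 7.5, 10 mM MgCl2, 0.1% BSA, compound pre-mixed with enzyme. Ran 60 min at 29 °C. Remaining cAMP read by HTRF, converted to % of uninhibited activity, and IC50 fitted.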
In general terms: Time-resolved FRET reads energy transfer from a long-lived donor to a nearby acceptor.

T1 sequence (Q9Y233 whole entry): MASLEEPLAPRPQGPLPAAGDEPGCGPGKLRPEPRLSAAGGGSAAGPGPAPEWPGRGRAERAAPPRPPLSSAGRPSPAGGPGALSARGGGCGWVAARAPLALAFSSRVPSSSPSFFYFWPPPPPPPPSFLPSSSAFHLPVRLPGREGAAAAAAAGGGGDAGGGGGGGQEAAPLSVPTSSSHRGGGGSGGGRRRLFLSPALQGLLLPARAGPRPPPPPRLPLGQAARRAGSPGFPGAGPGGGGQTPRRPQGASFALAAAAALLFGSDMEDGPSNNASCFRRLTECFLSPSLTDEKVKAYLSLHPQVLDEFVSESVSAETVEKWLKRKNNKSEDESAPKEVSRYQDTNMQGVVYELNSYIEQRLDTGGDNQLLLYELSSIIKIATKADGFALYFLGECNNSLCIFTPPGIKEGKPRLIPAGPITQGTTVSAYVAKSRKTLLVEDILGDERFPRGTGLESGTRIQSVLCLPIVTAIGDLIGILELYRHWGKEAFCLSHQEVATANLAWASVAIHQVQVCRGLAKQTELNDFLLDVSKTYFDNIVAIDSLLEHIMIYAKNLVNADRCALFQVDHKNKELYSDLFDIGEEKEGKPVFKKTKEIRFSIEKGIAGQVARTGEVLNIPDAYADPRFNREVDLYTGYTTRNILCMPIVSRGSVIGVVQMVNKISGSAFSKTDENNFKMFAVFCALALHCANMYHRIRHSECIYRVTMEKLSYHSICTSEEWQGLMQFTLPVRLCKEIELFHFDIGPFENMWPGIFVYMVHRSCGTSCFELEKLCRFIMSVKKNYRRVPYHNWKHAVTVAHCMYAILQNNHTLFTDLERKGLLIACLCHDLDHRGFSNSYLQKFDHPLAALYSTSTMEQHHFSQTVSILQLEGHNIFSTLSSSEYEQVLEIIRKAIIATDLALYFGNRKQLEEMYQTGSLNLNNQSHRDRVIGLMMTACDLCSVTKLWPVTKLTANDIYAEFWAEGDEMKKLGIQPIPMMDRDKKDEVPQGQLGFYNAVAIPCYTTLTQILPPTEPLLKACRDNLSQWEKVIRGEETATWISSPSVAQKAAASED

As a reminder, the microsomal CLint is the capacity of the preparation to metabolise the compound, expressed as a volume cleared per time. Read a low microsomal CLint as slow turnover. With `O=C1c2c(cccc2OCc2ccncc2)CN1CCc1ccc2ccccc2n1` [Example 128, 7-(Pyridin-4-ylmethoxy)-2-(2-quinolin-2-yl-ethyl)-2,3-dihydro-isoindol-1-one], the microsomal CLint at 0.5 μM in data set [1] was more than 220 µL/min/mg; in data set [2], 100 to 220 µL/min/mg.

Consider `O=C1c2c(cccc2N2CC3CNCC3C2)CN1CCc1ccc2ccccc2n1` (centres unmarked) [Example 192, 7-(Hexahydro-pyrrolo[3,4-c]pyrrol-2-yl)-2-(2-quinolin-2-yl-ethyl)-2,3-dihydro-isoindol-1-one], for which the results for the microsomal CLint at 0.5 μM in data set [1] and in data set [2] were less than 100 µL/min/mg and more than 220 µL/min/mg, respectively.

As to `CN1CCN(c2cccc3c2C(=O)N(CCc2nc4ccccc4n2C)C3)CC1` [Example 254, 2-[2-(1-Methyl-1H-benzoimidazol-2-yl)-ethyl]-7-(4-methyl-piperazin-1-yl)-2,3-dihydro-isoindol-1-one], the intrinsic clearance (microsomal CLint) at 0.5 μM in data set [1] and in data set [2] was less than 100 µL/min/mg each time.

As for `Cn1nccc1-c1ccnc2c1C(=O)N(CCc1nc3ccccn3n1)C2` [Example 213, 4-(2-Methyl-2H-pyrazol-3-yl)-6-(2-[1,2,4]triazolo[1,5-a]pyridin-2-yl-ethyl)-6,7-dihydro-pyrrolo[3,4-b]pyridin-5-one trifluoroacetate], the microsomal CLint at 0.5 μM in data set [1] and in data set [2] was less than 100 µL/min/mg each time.

Regarding `O=C1c2c(cccc2N2CCS(=O)(=O)CC2)CN1CCc1nc2ccccn2n1` [Example 232, 7-(1,1-Dioxothiomorpholin-4-yl)-2-(2-[1,2,4]triazolo[1,5-a]pyridin-2-yl-ethyl)-2,3-dihydro-isoindol-1-one], the microsomal CLint at 0.5 μM in data set [1] and in data set [2] was less than 100 µL/min/mg each time.

The compound `O=C1c2c(N3CCOCC3)ccnc2CN1CCc1cc2ccccc2o1` [compound 397, 6-[2-(Benzofuran-2-yl)ethyl]-4-morpholino-7H-pyrrolo[3,4-b]pyridin-5-one] gave a microsomal CLint at 0.5 μM in data set [2] of 100 to 220 µL/min/mg.

On to `O=C1c2c(cccc2OCc2ccccn2)CN1CCc1ccc2ccccc2n1` [Example 129, 7-(Pyridin-2-ylmethoxy)-2-(2-quinolin-2-yl-ethyl)-2,3-dihydro-isoindol-1-one], for which the microsomal CLint at 0.5 μM in data set [1] was 100 to 220 µL/min/mg; in data set [2], less than 100 µL/min/mg.

As to `CN1CCN(c2ccnc3c2C(=O)N(CCc2nc4ccccc4n2C)C3)CC1` [Example 226, 6-[2-(1-Methyl-1H-benzoimidazol-2-yl)-ethyl]-4-(4-methyl-piperazin-1-yl)-6,7-dihydro-pyrrolo[3,4-b]pyridin-5-one trifluoroacetate], the microsomal CLint at 0.5 μM in data set [1] and in data set [2] was less than 100 µL/min/mg throughout.

Regarding `C[C@@H]1CN(c2cccc3c2C(=O)N(CCc2ccc4ccccc4n2)C3)CC[C@@H]1c1ccc(OC(F)(F)F)cc1F.O=C(O)C(F)(F)F` [Example 147, 7-[(3S,4S)-4-(2-Fluoro-4-trifluoromethoxy-phenyl)-3-methyl-piperidin-1-yl]-2-(2-quinolin-2-yl-ethyl)-2,3-dihydro-isoindol-1-one trifluororacetate], the “Human mCl (mikrosomal clearance)” value in data set [1] (human liver microsomes, 0.5 μM test substance, 0.25 mg microsomal protein, pH 7.4, 37° C., NADPH) is “∘ (∘ not avialable or >220 μl min^−1 mg^−1)”. Besides, the “Rat mCl (mikrosomal clearance)” value in data set [2] (rat liver microsomes, 0.5 μM test substance, 0.25 mg microsomal protein, pH 7.4, 37° C., NADPH) is given as “+ (+: 100-220 μl min^−1 mg^−1)”.

As to `CN1CCN(c2cccc3c2C(=O)N(CCc2nc4ccccn4n2)C3)CC1` [Example 233, 7-(4-Methyl-piperazin-1-yl)-2-(2-[1,2,4]triazolo[1,5-a]pyridin-2-yl-ethyl)-2,3-dihydro-isoindol-1-one], the intrinsic metabolic clearance (microsomal CLint) at 0.5 μM in data set [1] and in data set [2] was less than 100 µL/min/mg in each case.

Consider `CN1CCN(C2CCN(c3cccc4c3C(=O)N(CCc3ccc5ccccc5n3)C4)CC2)CC1` [Example 100, 7-[4-(4-Methyl-piperazin-1-yl)-piperidin-1-yl]-2-(2-quinolin-2-yl-ethyl)-2,3-dihydro-isoindol-1-one trifluoroacetate], for which the microsomal CLint at 0.5 μM in data set [1] is 100 to 220 µL/min/mg; in data set [2], less than 100 µL/min/mg.

As for `CN(C)CC1CN(c2cccc3c2C(=O)N(CCc2ccc4ccccc4n2)C3)CCO1` (centres unmarked) [Example 229, 7-(2-Dimethylaminomethyl-morpholin-4-yl)-2-(2-quinolin-2-yl-ethyl)-2,3-dihydro-isoindol-1-one trifluoroacetate], the microsomal CLint at 0.5 μM in data set [1] and in data set [2] was less than 100 µL/min/mg in each case.

Consider `CN1CCN(Cc2cccc3c2C(=O)N(CCc2ccc4ccccc4n2)C3)CC1` [Example 177, 7-(4-Methyl-piperazin-1-ylmethyl)-2-(2-quinolin-2-yl-ethyl)-2,3-dihydro-isoindol-1-one], for which the intrinsic metabolic clearance (microsomal CLint) at 0.5 μM in data set [1] and in data set [2] was less than 100 µL/min/mg throughout.

Regarding `O=C1c2c(-c3ccncc3)ccnc2CN1CCc1cc2ccccc2o1` [compound 391, 6-[2-(Benzofuran-2-yl)ethyl]-4-(4-pyridyl)-7H-pyrrolo[3,4-b]pyridin-5-one], the microsomal CLint at 0.5 μM in data set [1] and in data set [2] was less than 100 µL/min/mg each time.

For the compound `CCN1CCN(C2CCN(c3cccc4c3C(=O)N(CCc3ccc5ccccc5n3)C4)CC2)CC1` [Example 157, 7-[4-(4-Ethyl-piperazin-1-yl)-piperidin-1-yl]-2-(2-quinolin-2-yl-ethyl)-2,3-dihydro-isoindol-1-one trifluoroacetate], the intrinsic clearance (microsomal CLint) at 0.5 μM in data set [1] was more than 220 µL/min/mg; in data set [2], less than 100 µL/min/mg.

For the compound `CC1CN(c2cccc3c2C(=O)N(CCc2ccc4ccccc4n2)C3)CCO1` (centres unmarked) [Example 228, 7-(2-Methyl-morpholin-4-yl)-2-(2-quinolin-2-yl-ethyl)-2,3-dihydro-isoindol-1-one trifluoroacetate], the figures for the intrinsic metabolic clearance (microsomal CLint) at 0.5 μM in data set [1] and in data set [2] were more than 220 µL/min/mg and 100 to 220 µL/min/mg, respectively.

With `O=C1c2c(cccc2N2CCN(c3cccnc3)CC2)CN1CCc1ccc2ccccc2n1` [Example 159, 7-(4-Pyridin-3-yl-piperazin-1-yl)-2-(2-quinolin-2-yl-ethyl)-2,3-dihydro-isoindol-1-one trifluoroacetate], the results for the microsomal CLint at 0.5 μM in data set [1] and in data set [2] were more than 220 µL/min/mg and 100 to 220 µL/min/mg, respectively.

On to `O=C1c2c(-c3cccnc3)ccnc2CN1CCc1cn2ccccc2n1` [Example 358, 6-(2-Imidazo[1,2-a]pyridin-2-yl-ethyl)-4-pyridin-3-yl-6,7-dihydro-pyrrolo[3,4-b]pyridin-5-one], for which the intrinsic clearance (microsomal CLint) at 0.5 μM in data set [1] and in data set [2] was less than 100 µL/min/mg throughout.

Turning to `Cn1c(CCN2Cc3nccc(NC4COC4)c3C2=O)nc2ccccc21` [Example 359, 6-[2-(1-Methyl-1H-benzoimidazol-2-yl)-ethyl]-4-(oxetan-3-ylamino)-6,7-dihydro-pyrrolo[3,4-b]pyridin-5-one], the microsomal CLint at 0.5 μM in data set [1] and in data set [2] was less than 100 µL/min/mg each time.

For the compound `COc1ccc(-c2cccc3c2C(=O)N(CCc2cn4ccccc4n2)C3)cc1` [Example 237, 2-(2-Imidazo[1,2-a]pyridin-2-yl-ethyl)-7-(4-methoxy-phenyl)-2,3-dihydro-isoindol-1-one], the microsomal CLint at 0.5 μM in data set [1] and in data set [2] was 100 to 220 µL/min/mg in each case.

With `O=C1c2c(cccc2N2CC[C@@H]3NCC[C@@H]3C2)CN1CCc1ccc2ccccc2n1` [Example 220, 7-(3aR,7aS)-Octahydro-pyrrolo[3,2-c]pyridin-5-yl-2-(2-quinolin-2-yl-ethyl)-2,3-dihydro-isoindol-1-one trifluoroacetate], the results for the intrinsic clearance (microsomal CLint) at 0.5 μM in data set [1] and in data set [2] were 100 to 220 µL/min/mg and more than 220 µL/min/mg, respectively.

As usually defined, the pIC50 is −log10 of the IC50, conventionally taken in molar units. Lower therefore signals a high IC50. Take `O=C1c2c(cccc2-c2ccncc2)CN1CCc1cccc(-c2ncccn2)c1` [Example 121, 7-(Pyridin-4-yl)-2-(3-(pyrimidin-2-yl)phenethyl)isoindolin-1-one]: in data set [1], the intrinsic metabolic clearance (microsomal CLint) at 0.5 μM fell in the range of 100 to 220 µL/min/mg. The compound also showed a pIC50 at PDE10A (human) of 6.30 to 6.70.

For the compound `Cc1ccc2ccc(CCN3Cc4nccc(N5CCOCC5)c4C3=O)nc2c1` [compound 392, 6-[2-(7-Methyl-2-quinolyl)ethyl]-4-morpholino-7H-pyrrolo[3,4-b]pyridin-5-one], at PDE10A (human), the negative logarithm of the IC50 (pIC50) was more than 7.00.

At PDE10A (human), `CCn1cc(-c2cccc3c2CN(CCc2ccc4ccccc4n2)C3=O)cn1` [Example 347, 4-(1-Ethyl-1H-pyrazol-4-yl)-2-(2-quinolin-2-yl-ethyl)-2,3-dihydro-isoindol-1-one] gave a negative logarithm of the IC50 (pIC50) of 6.70 to 7.00.

For `O=C1c2c(-c3ccncc3F)ccnc2CN1CCc1ccc2ccccc2n1` [compound 412, 4-(3-Fluoro-pyridin-4-yl)-6-(2-quinolin-2-yl-ethyl)-6,7-dihydro-pyrrolo[3,4-b]pyridin-5-one], the negative logarithm of the IC50 (pIC50) against PDE10A (human) is more than 7.00.

In the case of `CCn1cc(-c2ccnc3c2C(=O)N(CCc2ccc4ccccc4n2)C3)cn1` [Example 333, 4-(1-Ethyl-1H-pyrazol-4-yl)-6-(2-quinolin-2-yl-ethyl)-6,7-dihydro-pyrrolo[3,4-b]pyridin-5-one], at PDE10A (human), the pIC50 is 6.70 to 7.00.

Regarding `CCCn1c(CCN2Cc3cccc(-c4ccncc4)c3C2=O)nc2ccccc21` [Example 302, 2-[2-(1-Propyl-1H-benzoimidazol-2-yl)-ethyl]-7-pyridin-4-yl-2,3-dihydro-isoindol-1-one trifluoroacetate], the pIC50 against PDE10A (human) is more than 7.00.

The compound `O=C1c2cccc(-c3cscn3)c2CN1CCc1ccc2ccccc2n1` [Example 355, 2-(2-Quinolin-2-yl-ethyl)-4-thiazol-4-yl-2,3-dihydro-isoindol-1-one] showed a pIC50 against PDE10A (human) of more than 7.00.

In turn, `O=C1c2c(cccc2-c2cnc[nH]2)CN1CCc1ccc2ccccc2n1` [Example 84, 7-(3H-Imidazol-4-yl)-2-(2-quinolin-2-yl-ethyl)-2,3-dihydro-isoindol-1-one] gave a pIC50 against PDE10A (human) of more than 7.00.
